# Laboratory results as given in US7008957B2, “Bicyclic cyanoheterocycles, process for their preparation and their use as medicaments” (Sanofi-Aventis Deutschland GmbH, priority 2003, dated 2006).
row,Structure (SMILES),melting point [°C]
1,N#C[C@@H]1CS[C@H]2C[C@](N)(Cc3ccccc3)C(=O)N12.O=C(O)C(F)(F)F,209
2,N#C[C@@H]1CS[C@@H]2C[C@@H](N)C(=O)N12.O=C(O)C(F)(F)F,173.5
